# Measured values published in article PMC11714206, “Massively Parallel Screening of Toll/Interleukin‐1 Receptor (TIR)‐Derived Peptides Reveals Multiple Toll‐Like Receptors (TLRs)‐Targeting Immunomodulatory Peptides” (Advanced Science, 2024).
# Molecular target: T1, MyD88^TIR (Homo sapiens, UniProt Q99836)
# T1 construct: MyD88 (residues 148–296); 6xHis; made in house; host or cells: E. coli BL21 (DE3)
# Experiment: T‐Surf phage library (P8 and P3) selection against MyD88^TIR, four rounds, NGS read counts
# Type: binding
# Conditions: for P3_MyD88 Rank (after) / P3_MyD88 Rank (before): P3 library; for P8_MyD88 Rank (after) / P8_MyD88 Rank (before): P8 library; for Population: P3_MyD88 pool: P3 T-Surf phage library, 4th round of selection against MyD88 TIR, share of NGS reads
# Experimental: T‐Surf libraries were screened against the immobilized TIR domains of two major human TLR adaptor proteins, MAL^TIR and MyD88^TIR, allowing cross‐species selection of TIR‐binding motifs with 190 946 TIR‐derived peptides in a single binding assay (Scheme 1). Enriched phage pools from the fourth round of selection were analyzed using NGS after barcoding the peptide‐coding regions of the phage pools.
# Phage display screening was performed by coating two wells of a 96‐well plate (Maxisorp, Thermo Fisher Scientific) with 100 µL of 5 µg mL^−1 TIR domains overnight; then, the coated wells were blocked with 200 µL of blocking buffer (0.2% BSA in PBS) and set aside for 1 h at 4 °C with gentle shaking. Next, 100 µL of the phage library was added to the wells and incubated for 1 h at room temperature (RT; 20 – 22 °C) with gentle shaking. The plate was washed four times with PBS containing 0.5% Tween‐20; the bound phages were eluted by adding 100 µL of 100 mM HCl to each well. The elute was neutralized with 10 µL of 1.0 M Tris‐HCl (pH 11.0). E. coli TG1 cells were grown to the log phase (A600 = ≈0.6), and 1 mL of the culture was incubated with 100 µL of the eluted phages for 30 min at 37 °C, with shaking at 200 rpm. Next, 1 µL of M13KO7 helper phages was added, followed by incubation for 45 min at 37 °C, with shaking. Subsequently, the cells were transferred to 25 mL of 2× yeast extract tryptone/carbenicillin/kanamycin medium and incubated overnight at 37 °C with shaking at 200 rpm. The amplified phages were precipitated with 20% PEG‐8000/2.5 M NaCl to be used for the next round of selection.
# The naïve T‐Surf libraries in P8 and P3 and the enriched phage pools after four rounds were barcoded for NGS as previously described.^[ [59] ^] Briefly, 5 µL of the phage pool was used as a template for 20 cycles of a 50 µL PCR reaction using […] each of forward and reverse barcoded primers and PrimeSTAR Max DNA Polymerase. The PCR products were purified using Expin Gel SV (GeneAll). The NGS samples were quantified using qPCR, following the qPCR Quantification Protocol Guide (KAPA Library Quantification kits for Illumina Sequencing Platform), and qualified using the TapeStation High Sensitivity D1000 ScreenTape (Agilent Technologies). The indexed libraries were further sequenced by Macrogen (Seoul, Republic of Korea) using the NovaSeq platform (Illumina) with 100 bp paired‐end reads. The reads were demultiplexed by barcodes and filtered for an average Phred quality score of at least 30, followed by trimming the flanking consensus sequences using Cutadapt (version 2.3). Peptide sequence populations were analyzed according to the read counts.
# [1] = selection against MyD88, rank after grouping
# [2] = selection against MyD88, rank before grouping
# [3] = 4R selection against MyD88, rank after grouping
# [4] = 4R selection against MyD88, rank before grouping
# [5] = P8_MyD88: rank by NGS read count after grouping
# [6] = P8_MyD88: rank by NGS read count before grouping
# [7] = P8_MyD88: rank by count after grouping
# [8] = P8_MyD88: rank by count before grouping
# [9] = P3_MyD88: rank by count after grouping
# [10] = P3_MyD88: rank by count before grouping
# [11] = selection against MyD88, rank by count after grouping
# [12] = selection against MyD88, rank by count before grouping
# T1 sequence (Q99836 148-296): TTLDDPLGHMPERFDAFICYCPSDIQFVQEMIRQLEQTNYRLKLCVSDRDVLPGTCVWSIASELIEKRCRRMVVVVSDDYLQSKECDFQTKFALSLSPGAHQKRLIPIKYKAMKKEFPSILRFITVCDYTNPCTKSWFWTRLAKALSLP
sequence,measurement,setting,value
PEKANGGENAFFNNIV,P3_MyD88 Rank (after),[1],566
same,P3_MyD88 Rank (before),[2],2705
EWMREQRRPALKERLP,P3_MyD88 Rank (after),[3],599
same,P3_MyD88 Rank (before),[4],2180
SSFLQGLWRLLELSKK,P3_MyD88 Rank (after),[1],534
same,P3_MyD88 Rank (before),[2],3122
LGYHWFDWVYFVGIED,P8_MyD88 Rank (after),[1],523
same,P8_MyD88 Rank (before),[2],3329
DPQDLDWFYERQVRLF,Rank (after),[5],915
same,Rank (before),[6],2794
WALDELLQILYARERF,Rank (after),[7],448
same,Rank (before),[8],1466
NQWRNALTAAANLSGEFG,P3_MyD88 Rank (after),[3],604
same,P3_MyD88 Rank (before),[4],3505
NNFSAFLFEALFENGI,Rank (after),[7],181
same,Rank (before),[8],240
YASYDDNDYYWDPCAAASS,P8_MyD88 Rank (after),[1],511
same,P8_MyD88 Rank (before),[2],1815
ISYRQGRWRLLELSKK,Rank (after),[9],461
same,Rank (before),[10],2919
GFLYQALARDGFKIFM,Rank (after),[9],426
same,Rank (before),[10],1811
YELDFSHFWLFEARGDA,P8_MyD88 Rank (after),[3],636
same,P8_MyD88 Rank (before),[4],1944
YTALPNSGFHTIRDNE,P3_MyD88 Rank (after),[1],552
same,P3_MyD88 Rank (before),[2],1712
WALDELLQILHVSEMF,P8_MyD88 Rank (after),[11],747
same,P8_MyD88 Rank (before),[12],1418
LGYHWIDWEYFVGIK,Rank (after),[5],874
same,Rank (before),[6],3264
RERPVGAQRGVRSLAT,Rank (after),[9],469
same,Rank (before),[10],3286
YLMWPQEEEEIPLFWH,P8_MyD88 Rank (after),"selection against MyD88 TIR, rank by count after grouping",257
same,P8_MyD88 Rank (before),"selection against MyD88 TIR, rank by count before grouping",447
WDFASDMEQVWDRLYY,Rank (after),[7],444
same,Rank (before),[8],1582
LKWGEPYFCSKLRYAM,Rank (after),[9],476
same,Rank (before),[10],2449
YASSSWALDELLKILYANETM,Rank (after),[7],190
same,Rank (before),[8],277
SPWALYELVEILTAYK,Rank (after),[7],185
same,Rank (before),[8],251
WALNELLKILQAKIFL,Rank (after),[5],905
same,Rank (before),[6],1547
YTALTNRGFHTFRDHH,P3_MyD88 Rank (after),[11],687
same,P3_MyD88 Rank (before),[12],1651
LGYHWIVWEYLVGIKD,P8_MyD88 Rank (after),[3],652
same,P8_MyD88 Rank (before),[4],3245
DHHLDLPSGKAIKPDILG,Rank (after),[9],107
same,Rank (before),[10],2044
LKWGDPYLCSKLRYAM,P3_MyD88 Rank (after),[11],726
same,P3_MyD88 Rank (before),[12],2442
LGYHWIDWEYYVGTED,Rank (after),[7],440
same,Rank (before),[8],3301
NYAASEWALRELIQIM,P8_MyD88 Rank (after),[1],528
same,P8_MyD88 Rank (before),[2],3837
LQNQWKLALNKVANLP,Rank (after),[9],417
same,Rank (before),[10],2361
SSFRDGLWRLLELSKT,Rank (after),[9],106
same,Rank (before),[10],1198
SENYATSPWRWMNWC,P3_MyD88 Rank (after),[1],541
same,P3_MyD88 Rank (before),[2],2992
HLIQQGIELHLHQLHL,Rank (after),[5],941
same,Rank (before),[6],3556
SSFREGLWRLLELCKK,Population,,0.0032%
YITWFDDIQQIQVFWV,Rank (after),[5],978
same,Rank (before),[6],2116
DPQDLDRFYERLLSLL,Rank (after),[7],428
same,Rank (before),[8],2840
LVAHEISKKMKIFATF,Population,,0.00291%
NDSLFWDRLPYSLNVT,Rank (after),[7],468
same,Rank (before),[8],3868
QQISLVQLKVLEESHV,P8_MyD88 Rank (after),[3],648
same,P8_MyD88 Rank (before),[4],3604
KNLLNELVSKNIRTFM,Population,,0.00466%
LVAHEISKKRKIFATS,P3_MyD88 Rank (after),[1],511
same,P3_MyD88 Rank (before),[2],2306
DPQNLQWFYERLVILI,Rank (after),[7],392
same,Rank (before),[8],3031
